Reference: BindingDB's records for doi:10.1021/ml5001867 (Abbvie, 2014)
pEC50: −log10 of the molar value.

Assay: Inhibition of BCL-XL (unknown origin) expressed in mcl-1 deficient MEF assessed as induction of cell killing incubated for 48 hrs in presence of 10% FBS by Cell titerGlo reagent based assay

SMILES	pEC50
CN1CCN(CCCNc2ncnc3c2cnn3-c2ccc(OCCCc3sc(N4CCc5cccc(C(=O)Nc6nc7ccccc7s6)c5C4)nc3C(=O)O)cc2)CC1	7.70
O=C(Nc1nc2ccccc2s1)c1cccc2c1CN(c1nc(C(=O)O)c(CCCOc3ccc(-n4cccn4)cc3)s1)CC2	6.19
O=C(Nc1nc2ccccc2s1)c1cccc2c1CN(c1nc(C(=O)O)c(CCCOc3cccc(-n4ncc5cncnc54)c3)s1)CC2	< 5.30
CN(C)CCCNc1ncnc2c1cnn2-c1ccc(OCCCc2sc(N3CCc4cccc(C(=O)Nc5nc6ccccc6s5)c4C3)nc2C(=O)O)cc1	8.00
O=C(Nc1nc2ccccc2s1)c1cccc2c1CN(c1nc(C(=O)O)c(CCCCOc3ccc(-n4ncc5cncnc54)cc3)s1)CC2	< 5.30
O=C(Nc1nc2ccccc2s1)c1cccc2c1CN(c1nc(C(=O)O)c(CCOc3cccc(-n4ncc5cncnc54)c3)s1)CC2	< 5.30
O=C(Nc1nc2ccccc2s1)c1cccc2c1CN(c1nc(C(=O)O)c(CCOc3ccc(-n4ncc5cncnc54)cc3)s1)CC2	< 5.30
O=C(Nc1nc2ccccc2s1)c1cccc2c1CN(c1nc(C(=O)O)c(CCCOc3ccc(-n4ncc5cncnc54)cc3)s1)CC2	7.22
